What was measured:
NHDF cells = assay: SRB assay, relative cell proliferation rate of NHDF cells (control non-cancer cells); format: cell-based
From the text: (§1) HeLa cells and PANC-1 cells were used as the cancer cells. Both these cells were obtained from ATCC. Further, NHDF cells obtained from Lonza Group Ltd. were used as control non-cancer cells. The culture mediums used were Dulbecco's Modified Eagle Medium (D-MEM, manufactured by FUJIFILM Wako Pure Chemical Corporation) to which 10% FBS had been added (hereinafter also referred to as the “normal medium”), a medium prepared by removing leucine from D-MEM and adding 10% FBS (hereinafter also referred to as the “Leu-removed medium”), and a medium prepared by removing valine from D-MEM and adding 10% FBS (hereinafter also referred to as the “Val-removed medium”).
(§2) The culture cells were inoculated into a 96-well culture plate at a concentration of 3×10^3 cells/well, and following adhesion, were cultured for 24, 48 or 72 hours in the normal medium, the Leu-removed medium or Val-removed medium, or a medium prepared by adding the fluorine-containing amino acid to the Leu-removed medium or Val-removed medium in an amount sufficient to achieve a final concentration of 0.8 mM. Following culturing, the cell proliferation rate was measured by SRB assay. As a control, the cell proliferation rate was measured in a similar manner for cells having a culture time of 0 hours.
(§3) The SRB assays were conducted in the following manner. Following cell culturing, the medium was removed, and 10% (wt/vol) of trichloroacetic acid was added to fix the cells. Subsequently, the fixed cells were washed three times with tap water, and then stained by adding a solution containing 0.4% (wt/vol) of sulforhodamine B dissolved in 1% acetic acid. Following subsequent washing three times with a 1% acetic acid solution, a 10 mM Tris solution was added, and the light absorbance at 540 nm was measured. The 540 nm absorbance value for each sample was used to indicate the cell quantity, and for each sample, the relative cell proliferation rate (%) at a culture time of X hours was determined using the formula below.
(§4) SRB assays were conducted in the same manner as Example 1 with the exceptions of using a medium prepared by removing glutamine from D-MEM and adding 10% FBS (hereinafter also referred to as the “Gln-removed medium”) as the culture medium instead of the Leu-removed medium, using monofluoroglutamine ((2S,4S)Gln(1F) or (2S,4R)Gln(1F)) as the fluorine-containing amino acid, and altering the amount of monofluoroglutamine added to the Gln-removed medium to an amount sufficient to achieve a final concentration of 4 mM.

PANC-1 cells = assay: SRB assay, relative cell proliferation rate of PANC-1 cells; format: cell-based
From the text: as §1, §2, §3, §4
(§5) SRB assays were conducted in the same manner as Example 1 with the exceptions of using the Gln-removed medium as the culture medium instead of the Leu-removed medium, using difluoroglutamine as the fluorine-containing amino acid, and altering the amount of difluoroglutamine added to the Gln-removed medium to an amount sufficient to achieve a final concentration of 4 mM.

HeLa cells [1] = assay: SRB assay, relative cell proliferation rate of HeLa cells; format: cell-based
From the text: as §1, §2, §3, §4, §5

HeLa cells [2] = assay: Tumor volume of subcutaneously transplanted HeLa cells in SCID/SCID mice; format: in vivo; details: for Tumor volume: 5 mg/kg intraperitoneally every day for two weeks starting day 7; for Increase in the size of the tumor tissue compared with the control group: HeLa tumor-bearing SCID/SCID mice, 5 mg/kg intraperitoneally every day for two weeks, result in words
Protocol: First, 0.1 mL samples of an HeLa cell solution with a concentration of 1.0×10^7 cells/mL were transplanted beneath the skin of SCID/SCID (immunodeficient) mice. Starting 7 days after the HeLa cell transplantation, PBS (control group), leucine (5 mg/kg mouse bodyweight) or trifluoroleucine (5 mg/kg mouse bodyweight) was administered intraperitoneally every day for two weeks. The growth of the tumor tissue was observed over time from the time of HeLa transplantation, and the tumor volume (mm^3) was calculated. The tumor volume (mm^3) was calculated from the major diameter (mm) of the tumor tissue and the minor diameter (mm) of the tumor tissue using the formula shown below.
With the exceptions of using monofluoroisoleucine or 5-fluoro-5-methyl-norleucine (CAS RN: 1361228-49-0) instead of the trifluoroleucine, and starting the administration of the PBS, 5-fluoro-5-methyl-norleucine or monofluoroisoleucine 11 days after rather than 7 days after the HeLa cell transplantation, the same procedure as (1) above was used to measure the volume (mm^3) of the tumor formed by the subcutaneously transplanted HeLa cells over time.
(§6) First, 0.1 mL samples of an HeLa cell solution with a concentration of 1.0×10^7 cells/mL were transplanted beneath the skin of SCID/SCID (immunodeficient) mice. Starting 7 days after the HeLa cell transplantation, PBS (control group), glutamine (Gln) (5 mg/kg mouse bodyweight), (2S,4S)Gln(1F) (5 mg/kg mouse bodyweight) or (2S,4R)Gln(1F) (5 mg/kg mouse bodyweight) was administered intraperitoneally every day for two weeks. The growth of the tumor tissue was observed over time from the time of HeLa cell transplantation, and the tumor volume (mm^3) was calculated. The tumor volume (mm^3) was determined in the same manner as that described in Example 2.
as §6, with “mouse bodyweight), or di-F-Gln(F)” for “mouse bodyweight), (2S,4S)Gln(1F) (5 mg/kg mouse bodyweight) or (2S,4R)Gln(1F)”, “bodyweight), or di-F-Gln(F) (5 mg/kg” for “bodyweight) or (2S,4R)Gln(1F) (5 mg/kg”, “of HeLa transplantation, and” for “of HeLa cell transplantation, and”

[3] = Leu-removed medium + 0.8 mM amino acid, culture time 24 h
[4] = Leu-removed medium + 0.8 mM amino acid, culture time 48 h
[5] = Leu-removed medium + 0.8 mM amino acid, culture time 72 h, hydrochloride
[6] = 7 days since HeLa cell transplantation
[7] = 14 days since HeLa cell transplantation
[8] = 21 days since HeLa cell transplantation
[9] = Gln-removed medium + 4 mM amino acid, culture time 24 h
[10] = Gln-removed medium + 4 mM amino acid, culture time 48 h
[11] = Gln-removed medium + 4 mM amino acid, culture time 72 h
[12] = 9 days since HeLa cell transplantation
[13] = 11 days since HeLa cell transplantation
[14] = 16 days since HeLa cell transplantation
[15] = 18 days since HeLa cell transplantation

Structure (SMILES) | Tumor volume (HeLa cells [2]; [6]) | Tumor volume (HeLa cells [2]; [7]) | Tumor volume (HeLa cells [2]; [8]) | Increase in the size of the tumor tissue compared with the control group (HeLa cells [2]) | Relative cell proliferation rate of NHDF cells (NHDF cells; [9]) | Relative cell proliferation rate of NHDF cells (NHDF cells; [10]) | Relative cell proliferation rate of NHDF cells (NHDF cells; [11]) | Relative cell proliferation rate of PANC-1 cells (PANC-1 cells; [9]) | Relative cell proliferation rate of PANC-1 cells (PANC-1 cells; [10]) | Relative cell proliferation rate of PANC-1 cells (PANC-1 cells; [11]) | Relative cell proliferation rate of HeLa cells (HeLa cells [1]; [9]) | Relative cell proliferation rate of HeLa cells (HeLa cells [1]; [10]) | Relative cell proliferation rate of HeLa cells (HeLa cells [1]; [11]) | Tumor volume (HeLa cells [2]; [12]) | Tumor volume (HeLa cells [2]; [13]) | Tumor volume (HeLa cells [2]; [14]) | Tumor volume (HeLa cells [2]; [15]) | further results
CC(CC(N)C(=O)O)C(F)(F)F.Cl (stereo not shown) [Leu(3F), 2-amino-5,5,5-trifluoro-4-methylpentanoic acid hydrochloride] | 135.6 mm^3 | 200.6 mm^3 | 704.0 mm^3 | dramatically inhibited |  |  |  |  |  |  |  |  |  |  |  |  |  | Relative cell proliferation rate of NHDF cells (NHDF cells; [3]): 138.5%; Relative cell proliferation rate of NHDF cells (NHDF cells; [4]): 138.2%; Relative cell proliferation rate of NHDF cells (NHDF cells; [5]): 185.6%; Relative cell proliferation rate of NHDF cells (NHDF cells; Leu-removed medium + 0.8 mM amino acid, culture time 72 h, listed as trifluoroleucine, hydrochloride): ~200%; Relative cell proliferation rate of PANC-1 cells (PANC-1 cells; [3]): 77.1%; Relative cell proliferation rate of PANC-1 cells (PANC-1 cells; [4]): 87.0%; Relative cell proliferation rate of PANC-1 cells (PANC-1 cells; [5]): 75.5%; Relative cell proliferation rate of HeLa cells (HeLa cells [1]; [3]): 78.5%; Relative cell proliferation rate of HeLa cells (HeLa cells [1]; [4]): 91.6%; Relative cell proliferation rate of HeLa cells (HeLa cells [1]; [5]): 89.5%; Tumor volume (HeLa cells [2]; 10 days since HeLa cell transplantation): 169.4 mm^3; Tumor volume (HeLa cells [2]; 12 days since HeLa cell transplantation): 204.1 mm^3; Tumor volume (HeLa cells [2]; 17 days since HeLa cell transplantation): 315.3 mm^3; Tumor volume (HeLa cells [2]; 19 days since HeLa cell transplantation): 460.2 mm^3
NC(=O)[C@H](F)C[C@H](N)C(=O)O [(2S,4R)-Gln(1F)] | 74.6 mm^3 | 219.1 mm^3 | 431.4 mm^3 | dramatically inhibited | 132.5% | 46.5% | 26.3% | 65.0% | 34.7% | 25.7% | 46.8% | 21.5% | 23.1% | 101.6 mm^3 | 147.2 mm^3 | 287.0 mm^3 | 307.7 mm^3 | 
NC(=O)[C@@H](F)C[C@H](N)C(=O)O [(2S,4S)-Gln(1F)] | 72.1 mm^3 | 207.1 mm^3 | 439.9 mm^3 | dramatically inhibited | 157.4% | 129.4% | 82.9% | 31.5% | 27.3% | 25.7% | 29.2% | 32.1% | 25.0% | 96.9 mm^3 | 149.0 mm^3 | 242.3 mm^3 | 357.2 mm^3 | 

Source: US20250312303A1, “ANTICANCER AGENT” (AGC Inc., priority 2022, published 2025)
